pIC50: −log10 of the molar value. Where two headings read alike, the source gives them in different places.
Key:
KRAS G12D = KRAS G12D (Homo sapiens (Human), UniProt P01116, G12D); test: KRAS G12D LoEnz Biochemical Assay, BODIPY-GDP Exchange TR-FRET (SOS1-mediated nucleotide exchange); settings: read-out: KRas (G12D) GDP HTRF IC50
KRAS WT = KRAS WT (Homo sapiens (Human), UniProt P01116); test: KRAS WT Biochemical Assay, BODIPY-GDP Exchange TR-FRET (Example 501; 3 nM KRAS WT, 3 nM SOS1, 60-minute incubation)
Sequence of KRAS WT (P01116-2 other isoform, or with tags, fused parts or gaps): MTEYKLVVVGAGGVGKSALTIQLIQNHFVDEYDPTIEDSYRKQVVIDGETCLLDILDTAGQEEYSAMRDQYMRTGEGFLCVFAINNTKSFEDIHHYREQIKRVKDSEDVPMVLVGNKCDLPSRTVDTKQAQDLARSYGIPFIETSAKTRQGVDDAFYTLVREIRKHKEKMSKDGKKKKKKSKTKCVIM
How it was run: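 SOS1-mediated exchange assay: 3 nM biotin-KRAS WT with terbium-streptavidin, started with 3 nM SOS1 and 300 nM BODIPY-GDP, HEPES pH 7.5 with MgCl2. TR-FRET (520/490 nm) read after 60 min; normalized to DMSO and full-inhibition control, IC50 from 4-parameter Hill fit.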

[1] = read-out: KRas(wt) GDP HTRF IC50

Sequence of KRAS G12D (P01116-2 other isoform, or with tags, fused parts or gaps G12D): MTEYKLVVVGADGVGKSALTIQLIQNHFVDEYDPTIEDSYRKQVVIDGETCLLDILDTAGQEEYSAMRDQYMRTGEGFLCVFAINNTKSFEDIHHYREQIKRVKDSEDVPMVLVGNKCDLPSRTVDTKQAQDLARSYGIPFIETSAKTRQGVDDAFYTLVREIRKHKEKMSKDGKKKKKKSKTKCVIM

Structure (SMILES) | pIC50 (KRAS G12D) | pIC50 (KRAS WT; read-out: KRas HTRF IC50) | pIC50 (KRAS WT; [1]) | IC50 (KRAS WT; KRas HTRF IC50 [uM]) [µM]
Cc1nc(N)c(C)c(-c2nc3c4c(nc(OC[C@@]56CCCN5C[C@H](F)C6)nc4c2F)N2C[C@H]4CC[C@H](N4)[C@H]2[C@H](C)O3)c1C(F)(F)F [Compound 198, 4-((5S,5aS,6S,9R)-1-Fluoro-12-(((2R,7aS)-2-fluorotetrahydro-1H-pyrrolizin-7a(5H)-yl)methoxy)-5-methyl-5a,6,7,8,9,10-hexahydro-5H-4-oxa-3,10a,11,13,14-pentaaza-6,9-methanonaphtho[1,8-ab]heptalen-2-yl)-3,6-dimethyl-5-(trifluoromethyl)pyridin-2-amine] | 9.21 | 7.07 |  | 
Cc1nc(N)cc(-c2nc3c4c(nc(OCC5(CN6CCOC(C(F)(F)F)C6)CC5)nc4c2F)N2C[C@H]4CC[C@H](N4)[C@H]2[C@H](C)O3)c1C(F)(F)F (stereo partly drawn) [Compound 267, 4-((5S,5aS,6S,9R)-1-fluoro-5-methyl-12-((1-((2-(trifluoromethyl)morpholino)methyl)cyclopropyl)methoxy)-5a,6,7,8,9,10-hexahydro-5H-4-oxa-3,10a,11,13,14-pentaaza-6,9-methanonaphtho[1,8-ab]heptalene-2-yl)-6-methyl-5-(trifluoromethyl)pyridin-2-amine] | 8.53 | 6.22 |  | 
Cc1c(F)c(N)cc(-c2nc3c4c(nc(OCC5(CN6CCOCC6)CC5)nc4c2F)N2C[C@H]4CC[C@H](N4)[C@H]2[C@H](C(F)(F)F)O3)c1C(F)(F)F [Compound 249, 2-Fluoro-5-((5R,5aS,6S,9R)-1-fluoro-12-((1-(morpholinomethyl)cyclopropyl)methoxy)-5-(trifluoromethyl)-5a,6,7,8,9,10-hexahydro-5H-4-oxa-3,10a,11,13,14-pentaaza-6,9-methanonaphtho[1,8-ab]heptalene-2-yl)-3-methyl-4-(trifluoromethyl)aniline] | 9.66 | 8.86 |  | 
C#Cc1cccc2cc(O)cc(-c3nc4c5c(nc(OC[C@]67CCN6CC(F)(F)C7)nc5c3F)N3C[C@H]5CC[C@H](N5)[C@H]3[C@H](C)O4)c12 (single isomer, unassigned) [Compound 19] | 10.10 |  | 8.74 | 
COC1(C(F)F)CN(CC2(COc3nc4c5c(nc(-c6cc(N)nc(C)c6C(F)(F)F)c(F)c5n3)O[C@@H](C)[C@@H]3[C@@H]5CC[C@H](CN43)N5)CC2)C1 [Compound 271, 4-((5S,5aS,6S,9R)-12-((1-((3-(difluoromethyl)-3-methoxyazetidin-1-yl)methyl)cyclopropyl)methoxy)-1-fluoro-5-methyl-5a,6,7,8,9,10-hexahydro-5H-4-oxa-3,10a,11,13,14-pentaaza-6,9-methanonaphtho[1,8-ab]heptalene-2-yl)-6-methyl-5-(trifluoromethyl)pyridin-2-amine] | 9.29 | 7.25 |  | 
Cc1c(F)c(N)cc(-c2nc3c4c(nc(OC[C@@H]5CC[C@H]6COCCN65)nc4c2F)N2C[C@H]4CC[C@H](N4)[C@H]2[C@H](C(F)(F)F)O3)c1C(F)(F)F [Compound 245, 2-Fluoro-5-((5R,5aS,6S,9R)-1-fluoro-12-(((6S,8aS)-hexahydro-1H-pyrrolo[2,1-c][1,4]oxazin-6-yl)methoxy)-5-(trifluoromethyl)-5a,6,7,8,9,10-hexahydro-5H-4-oxa-3,10a,11,13,14-pentaaza-6,9-methanonaphtho[1,8-ab]heptalene-2-yl)-3-methyl-4-(trifluoromethyl)aniline] | 9.60 | 8.13 |  | 
Cc1nc(N)cc(-c2nc3c4c(nc(OC[C@@]56CCCN5C[C@H](F)C6)nc4c2F)N2C[C@H]4CC[C@H](N4)[C@H]2[C@H](C)O3)c1C(F)(F)F [Compound 215, 4-((5S,5aS,6S,9R)-1-Fluoro-12-(((2R,7aS)-2-fluorotetrahydro-1H-pyrrolizin-7°(5H)-yl)methoxy)-5-methyl-5°,6,7,8,9,10-hexahydro-5H-4-oxa-3,10°,11,13,14-pentaaza-6,9-methanonaphtho[1,8-ab]heptalen-2-yl)-6-methyl-5-(trifluoromethyl)pyridin-2-amine] | 9.68 | 8.15 |  | 
Cc1cc(N)c(F)c(-c2nc3c4c(nc(OC[C@@]56CCCN5C[C@H](F)C6)nc4c2F)N2C[C@H]4CC[C@H](N4)[C@H]2[C@H](C)O3)c1CC(F)(F)F [Compound 182, 2-Fluoro-3-((5S,5aS,6S,9R)-1-fluoro-12-(((2R,7aS)-2-fluorotetrahydro-1H-pyrrolizin-7°(5H)-yl)methoxy)-5-methyl-5°,6,7,8,9,10-hexahydro-5H-4-oxa-3,10°,11,13,14-pentaaza-6,9-methanonaphtho[1,8-ab]heptalen-2-yl)-5-methyl-4-(2,2,2-trifluoroethyl)aniline] | 9.57 | 7.47 |  | 
C#Cc1cccc2cc(O)cc(-c3nc4c5c(nc(OC[C@@]67CCCN6C[C@H](F)C7)nc5c3F)N3C[C@H]5CC[C@H](N5)[C@H]3[C@H](C(F)(F)F)O4)c12 [Compound 251, 5-Ethynyl-4-((5R,5aS,6S,9R)-1-fluoro-12-(((2R,7aS)-2-fluorotetrahydro-1H-pyrrolizin-7a(5H)-yl)methoxy)-5-(trifluoromethyl)-5a,6,7,8,9,10-hexahydro-5H-4-oxa-3,10a,11,13,14-pentaaza-6,9-methanonaphtho[1,8-ab]heptalene-2-yl)naphthalen-2-ol] | 9.80 | 8.98 |  | 
Cc1c(F)c(N)cc(-c2nc3c4c(nc(OC[C@@H]5C[C@@H](F)CN5C)nc4c2F)N2C[C@H]4CC[C@H](N4)[C@H]2[C@H](C)O3)c1C(F)(F)F [Compound 26, 2-Fluoro-5-((5S,5aS,6S,9R)-1-fluoro-12-(((2S,4R)-4-fluoro-1-methylpyrrolidin-2-yl)methoxy)-5-methyl-5a,6,7,8,9,10-hexahydro-5H-4-oxa-3,10a,11,13,14-pentaaza-6,9-methanonaphtho[1,8-ab]heptalen-2-yl)-3-methyl-4-(trifluoromethyl)aniline] | 9.59 |  | 8.22 | 
CCc1cccc2cc(O)cc(-c3nc4c5c(nc(OC[C@@]67CCCN6C[C@H](F)C7)nc5c3F)N3C[C@H]5CC[C@H](N5)[C@H]3CO4)c12 [Compound 5, 5-ethyl-4-((5aS,6S,9R)-1-fluoro-12-(((2R,7aS)-2-fluorotetrahydro-1H-pyrrolizin-7a(5H)-yl)methoxy)-5a,6,7,8,9,10-hexahydro-5H-4-oxa-3,10a,11,13,14-pentaaza-6,9-methanonaphtho[1,8-ab]heptalen-2-yl)naphthalen-2-ol] | 10.22 |  | 8.67 | 
Cc1nc(N)c(F)c(-c2nc3c4c(nc(OCC5(CN6C[C@H]7C[C@@H]6CO7)CC5)nc4c2F)N2C[C@H]4CC[C@H](N4)[C@H]2[C@H](C)O3)c1C(F)(F)F [Compound 223, 4-((5S,5aS,6S,9R)-12-((1-(((1R,4R)-2-Oxa-5-azabicyclo[2.2.1]heptan-5-yl)methyl)cyclopropyl)methoxy)-1-fluoro-5-methyl-5a,6,7,8,9,10-hexahydro-5H-4-oxa-3,10a,11,13,14-pentaaza-6,9-methanonaphtho[1,8-ab]heptalene-2-yl)-3-fluoro-6-methyl-5-(trifluoromethyl)pyridin-2-amine] | 8.47 | 7.29 |  | 
Cc1nc(N)cc(-c2nc3c4c(nc(OCC5(CN6CC[C@H]7OCC[C@H]76)CC5)nc4c2F)N2C[C@H]4CC[C@H](N4)[C@H]2[C@H](C)O3)c1C(F)(F)F [Compound 268, 4-((5S,5aS,6S,9R)-1-fluoro-12-((1-(((3aR,6aR)-hexahydro-4H-furo[3,2-b]pyrrol-4-yl)methyl)cyclopropyl)methoxy)-5-methyl-5a,6,7,8,9,10-hexahydro-5H-4-oxa-3,10a,11,13,14-pentaaza-6,9-methanonaphtho[1,8-ab]heptalene-2-yl)-6-methyl-5-(trifluoromethyl)pyridin-2-amine] | 9.54 | 7.92 |  | 
C[C@@H]1Oc2nc(-c3cc(N)cc4c3CC4)c(F)c3nc(OC[C@@]45CCCN4C[C@H](F)C5)nc(c23)N2C[C@H]3CC[C@H](N3)[C@@H]12 [Compound 201, 5-((5S,5aS,6S,9R)-1-Fluoro-12-(((2R,7aS)-2-fluorotetrahydro-1H-pyrrolizin-7a(5H)-yl)methoxy)-5-methyl-5a,6,7,8,9,10-hexahydro-5H-4-oxa-3,10a,11,13,14-pentaaza-6,9-methanonaphtho[1,8-ab]heptalen-2-yl)bicyclo[4.2.0]octa-1(6),2,4-trien-3-amine] | 8.04 | 5.79 |  | 
Cc1nc(N)c(F)c(-c2nc3c4c(nc(OCC56CCN5CC(F)(F)C6)nc4c2F)N2C[C@H]4CC[C@H](N4)[C@H]2[C@H](C)O3)c1C(F)(F)F (stereo partly drawn) [Compound 220, 4-((5S,5aS,6S,9R)-12-((3,3-Difluoro-1-azabicyclo[3.2.0]heptan-5-yl)methoxy)-1-fluoro-5-methyl-5a,6,7,8,9,10-hexahydro-5H-4-oxa-3,10a,11,13,14-pentaaza-6,9-methanonaphtho[1,8-ab]heptalene-2-yl)-3-fluoro-6-methyl-5-(trifluoromethyl)pyridin-2-amine] | 9.04 | 6.83 |  | 
Cc1c(F)c(N)cc(-c2nc3c4c(nc(OCC5(CN6CC6(C)C)CC5)nc4c2F)N2C[C@H]4CC[C@H](N4)[C@H]2[C@H](C)O3)c1C(F)(F)F (stereo partly drawn) [Compound 259, 5-((5S,5aS,6S,9R)-12-((1-((2,2-Dimethylaziridin-1-yl)methyl)cyclopropyl)methoxy)-1-fluoro-5-methyl-5a,6,7,8,9,10-hexahydro-5H-4-oxa-3,10a,11,13,14-pentaaza-6,9-methanonaphtho[1,8-ab]heptalen-2-yl)-2-fluoro-3-methyl-4-(trifluoromethyl)aniline] | 9.80 |  |  | 0.00971

Source: patent US20240025919A1, “AZA-TETRACYCLIC OXAZEPINE COMPOUNDS AND USES THEREOF” (Genentech, Inc., priority 2022, published 2024)
